# “Also recorded” adds a separate entry of the source. Like-named read-outs stand apart in the source and are kept apart here.
# Tests used:
# [1] = system: Mycobacterium tuberculosis MDR strain; experiment: colony-forming units after treatment at the MIC; type: cell-based
# [2] = system: Mycobacterium tuberculosis H37Rv; experiment: microbe, parasite or virus in culture; type: cell-based; settings: M. tuberculosis H37Rv, broth microdilution
# [3] = system: Mycobacterium tuberculosis; type: cell-based; settings: electron microscopy
# [4] = system: clinical isolates of methicillin-resistant S. aureus (MRSA); experiment: Minimum inhibitory concentration, Table 1, MRSA clinical isolates; type: cell-based, Staphylococcus aureus; for sensitive/resistant (growth): key: S Sensitive (did not grow the crop); R resistant (bacterial growth)
# [5] = intratracheal treatment of healthy mice, lung histology; type: in vivo; settings: 8 μg intratracheally for one month
# Procedure: FIGS. 21C-21F illustrate representative micrographs of lung (hematoxylin-eosin staining, 250× magnification) from the untreated group (FIG. 21C) showing extensive areas of pneumonia (asterisk). […] A representative micrograph of a healthy mouse treated intratracheally for one month with 8 μg of the blue 1,4 benzoquinone is shown in FIG. 21E.
# The bactericidal activity of the blue compound was tested against progressive pulmonary tuberculosis using an experimental infection model in BALB/c mice. […] This same dose was administered intratracheally to healthy mice for one month, after which they were sacrificed, and their lungs examined.
# Jurkat cells = experiment: Annexin V / viability dye flow cytometry apoptosis assay; type: cell-based; settings: 25 μM; 0, 4, 8 and 12 h
# Procedure: In this assay, Jurkat cells were incubated with either the red or blue 1,4 benzoquinone at a concentration of 25 μM for 0, 4, 8 and 12 h. Cells were then stained with the Fixable Viability Dye eFluor 780 and FITC Annexin V and analyzed using flow cytometry. Positive staining with Annexin V is a marker of early apoptosis, and positive staining with both Annexin V and the viability dye is a marker of late apoptosis/necrosis. Double negatives are live cells. Cells were grouped into three categories (live, early apoptotic, and late apoptotic/necrotic). Data from three independent experiments are shown as mean±SEM (standard error of mean).
smiles,measurement,setting,value
"COC1=CC(=O)C(SC)=C(SC)C1=O [blue 1,4 benzoquinone, 5-methoxy-2,3-bis(methylthio)cyclohexa-2,5-diene-1,4-dione]",killing in comparison to the inoculum bacteria concentration,[1],more than 90%
same,MIC,[2],4 µg/mL
same,ultrastructural changes in Mycobacterium tuberculosis bacilli,[3],ultrastructural changes were promoted
same,ultrastructural changes in Mycobacterium tuberculosis bacilli,[3]; listed as blue benzoquinone,ultrastructural changes
same,MIC,"[4]; Staphylococcus aureus, MRSA",> 64 µg/mL
same,MIC,[4]; strain 01 2075,>64 µg/mL
same,sensitive/resistant (growth),"[4]; strain 01 2075, 0.5 μg/ml",R
same,sensitive/resistant (growth),"[4]; strain 01 2075, 1 μg/ml",R
same,sensitive/resistant (growth),"[4]; strain 01 2075, 2 μg/ml",R
same,sensitive/resistant (growth),"[4]; strain 01 2075, 4 μg/ml",R
same,sensitive/resistant (growth),"[4]; strain 01 2075, 8 μg/ml",R
same,sensitive/resistant (growth),"[4]; strain 01 2075, 16 μg/ml",R
same,sensitive/resistant (growth),"[4]; strain 01 2075, 32 μg/ml",R
same,sensitive/resistant (growth),"[4]; strain 01 2075, 64 μg/ml",R
same,MIC,[4]; strain 01 2104,>64 µg/mL
same,sensitive/resistant (growth),"[4]; strain 01 2104, 0.5 μg/ml",R
same,sensitive/resistant (growth),"[4]; strain 01 2104, 1 μg/ml",R
same,sensitive/resistant (growth),"[4]; strain 01 2104, 2 μg/ml",R
same,sensitive/resistant (growth),"[4]; strain 01 2104, 4 μg/ml",R
same,sensitive/resistant (growth),"[4]; strain 01 2104, 8 μg/ml",R
same,sensitive/resistant (growth),"[4]; strain 01 2104, 16 μg/ml",R
same,sensitive/resistant (growth),"[4]; strain 01 2104, 32 μg/ml",R
same,sensitive/resistant (growth),"[4]; strain 01 2104, 64 μg/ml",R
same,sensitive/resistant (growth),"[4]; strain 09 3001, 0.5 μg/ml",R
same,sensitive/resistant (growth),"[4]; strain 09 3001, 1 μg/ml",R
same,sensitive/resistant (growth),"[4]; strain 09 3001, 2 μg/ml",R
same,sensitive/resistant (growth),"[4]; strain 09 3001, 4 μg/ml",R
same,sensitive/resistant (growth),"[4]; strain 09 3001, 8 μg/ml",R
same,sensitive/resistant (growth),"[4]; strain 09 3001, 16 μg/ml",R
same,sensitive/resistant (growth),"[4]; strain 09 3001, 32 μg/ml",R
same,sensitive/resistant (growth),"[4]; strain 09 3001, 64 μg/ml",R
same,MIC,[4]; strain 21 2001,>64 µg/mL
same,sensitive/resistant (growth),"[4]; strain 21 2001, 0.5 μg/ml",R
same,sensitive/resistant (growth),"[4]; strain 21 2001, 1 μg/ml",R
same,sensitive/resistant (growth),"[4]; strain 21 2001, 2 μg/ml",R
same,sensitive/resistant (growth),"[4]; strain 21 2001, 4 μg/ml",R
same,sensitive/resistant (growth),"[4]; strain 21 2001, 8 μg/ml",R
same,sensitive/resistant (growth),"[4]; strain 21 2001, 16 μg/ml",R
same,sensitive/resistant (growth),"[4]; strain 21 2001, 32 μg/ml",R
same,sensitive/resistant (growth),"[4]; strain 21 2001, 64 μg/ml",R
same,pulmonary histology of healthy mice,[5],"The pulmonary histology is normal, with the exception of occasional mild inflammatory infiltrates found around venules; also recorded: only minor inflammatory infiltrates found around the venules"
same,lung fibrosis in healthy mice,[5]; trichrome Masson staining,No fibrosis was seen
same,"apoptosis (Annexin V staining, loss of cell membrane asymmetry)",Jurkat cells,triggers apoptosis
"COC1=CC(=O)C(SC)=C(OC)C1=O [red 1,4 benzoquinone, 3,5-dimethoxy-2-(methylthio)cyclohexa-2,5-diene-1,4-dione]",MIC,[2],> 160 µg/mL
same,MIC,"[4]; Staphylococcus aureus, MRSA",> 64 µg/mL
same,MIC,[4]; strain 01 2075,>64 µg/mL
same,sensitive/resistant (growth),"[4]; strain 01 2075, 0.5 μg/ml",R
same,sensitive/resistant (growth),"[4]; strain 01 2075, 1 μg/ml",R
same,sensitive/resistant (growth),"[4]; strain 01 2075, 2 μg/ml",R
same,sensitive/resistant (growth),"[4]; strain 01 2075, 4 μg/ml",R
same,sensitive/resistant (growth),"[4]; strain 01 2075, 8 μg/ml",R
same,sensitive/resistant (growth),"[4]; strain 01 2075, 16 μg/ml",R
same,sensitive/resistant (growth),"[4]; strain 01 2075, 32 μg/ml",R
same,sensitive/resistant (growth),"[4]; strain 01 2075, 64 μg/ml",R
same,MIC,[4]; strain 01 2104,>64 µg/mL
same,sensitive/resistant (growth),"[4]; strain 01 2104, 0.5 μg/ml",R
same,sensitive/resistant (growth),"[4]; strain 01 2104, 1 μg/ml",R
same,sensitive/resistant (growth),"[4]; strain 01 2104, 2 μg/ml",R
same,sensitive/resistant (growth),"[4]; strain 01 2104, 4 μg/ml",R
same,sensitive/resistant (growth),"[4]; strain 01 2104, 8 μg/ml",R
same,sensitive/resistant (growth),"[4]; strain 01 2104, 16 μg/ml",R
same,sensitive/resistant (growth),"[4]; strain 01 2104, 32 μg/ml",R
same,sensitive/resistant (growth),"[4]; strain 01 2104, 64 μg/ml",R
same,sensitive/resistant (growth),"[4]; strain 09 3001, 0.5 μg/ml",R
same,sensitive/resistant (growth),"[4]; strain 09 3001, 1 μg/ml",R
same,sensitive/resistant (growth),"[4]; strain 09 3001, 2 μg/ml",R
same,sensitive/resistant (growth),"[4]; strain 09 3001, 4 μg/ml",R
same,sensitive/resistant (growth),"[4]; strain 09 3001, 8 μg/ml",R
same,sensitive/resistant (growth),"[4]; strain 09 3001, 16 μg/ml",R
same,sensitive/resistant (growth),"[4]; strain 09 3001, 32 μg/ml",R
same,sensitive/resistant (growth),"[4]; strain 09 3001, 64 μg/ml",R
same,MIC,[4]; strain 21 2001,>64 µg/mL
same,sensitive/resistant (growth),"[4]; strain 21 2001, 0.5 μg/ml",R
same,sensitive/resistant (growth),"[4]; strain 21 2001, 1 μg/ml",R
same,sensitive/resistant (growth),"[4]; strain 21 2001, 2 μg/ml",R
same,sensitive/resistant (growth),"[4]; strain 21 2001, 4 μg/ml",R
same,sensitive/resistant (growth),"[4]; strain 21 2001, 8 μg/ml",R
same,sensitive/resistant (growth),"[4]; strain 21 2001, 16 μg/ml",R
same,sensitive/resistant (growth),"[4]; strain 21 2001, 32 μg/ml",R
same,sensitive/resistant (growth),"[4]; strain 21 2001, 64 μg/ml",R
same,"apoptosis (Annexin V staining, loss of cell membrane asymmetry)",Jurkat cells,triggers apoptosis
